Results as given in US7767679B2, “Sulfonylamino-derivatives as novel inhibitors of histone deacetylase” (Janssen Pharmaceutica N.V., priority 2002, dated 2010).
Converted amounts (≈) assume the structure as drawn. Like-named read-outs stand apart in the source and are kept apart here.

Legend:
[1] = system: A2780 ovarian carcinoma cells; test: Antiproliferative activity on A2780 cells (MTT); format: cell-based; settings: Homo sapiens, 96 h, four days of incubation, read-out: Cellular activity pIC50 (converted)
Method: Cellular activity of the compounds of formula (I) was determined on A2780 tumour cells using a colorimetric assay for cell toxicity or survival (Mosmann Tim, Journal of Immunological Methods 65: 55-63, 1983)(see example C.2).
All compounds tested were dissolved in DMSO and further dilutions were made in culture medium. Final DMSO concentrations never exceeded 0.1% (v/v) in cell proliferation assays. Controls contained A2780 cells and DMSO without compound and blanks contained DMSO but no cells. MTT was dissolved at 5 mg/ml in PBS. A glycine buffer comprised of 0.1 M glycine and 0.1 M NaCl buffered to pH 10.5 with NaOH (1 N) was prepared (all reagents were from Merck).
The human A2780 ovarian carcinoma cells (a kind gift from Dr. T. C. Hamilton [Fox Chase Cancer Centre, Pennsylvania, USA]) were cultured in RPMI 1640 medium supplemented with 2 mM L-glutamine, 50 μg/ml gentamicin and 10% fetal calf serum. Cells were routinely kept as monolayer cultures at 37° C. in a humidified 5% CO2 atmosphere. Cells were passaged once a week using a trypsin/EDTA solution at a split ratio of 1:40. All media and supplements were obtained from Life Technologies. Cells were free of mycoplasma contamination as determined using the Gen-Probe Mycoplasma Tissue Culture kit (supplier: BioMérieux).
Cells were seeded in NUNC™ 96-well culture plates (Supplier: Life Technologies) and allowed to adhere to the plastic overnight. Densities used for plating were 1500 cells per well in a total volume of 200 μl medium. After cell adhesion to the plates, medium was changed and drugs and/or solvents were added to a final volume of 200 μl. Following four days of incubation, medium was replaced by 200 μl fresh medium and cell density and viability was assessed using an […] assay. To each well, 25 μl μl MTT solution was added and the cells were further incubated for 2 hours at 37° C. The medium was then carefully aspirated and the blue MT-formazan product was solubilized by addition of 25 μl glycine buffer followed by 100 μl of DMSO. […] Within an experiment, the results for each experimental condition are the mean of 3 replicate wells. For initial screening purposes, compounds were tested at a single fixed concentration of 10^−6 M. For active compounds, the experiments were repeated to establish full concentration-response curves. For each experiment, controls (containing no drug) and a blank incubation (containing no cells or drugs) were run in parallel. The blank value was subtracted from all control and sample values. For each sample, the mean value for cell growth (in absorbance units) was expressed as a percentage of the mean value for cell growth of the control. […] Herein the effects of test compounds are expressed as pIC50 (the negative log value of the IC50-value).

[2] = Kinetic solubility in aqueous media; format: physicochemical; settings: aqueous buffer, kinetic from dmso stock; phosphate citrate buffer pH 7.4, turbidity by nephelometer; read-out: Solubility Score
Method: Kinetic solubility in aqueous media measures the ability of a compound to stay in aqueous solution upon dilution (see example C.3).
DMSO-stock solutions are diluted with a single aqueous buffer solvent in 3 consecutive steps. For every dilution turbidity is measured with a nephelometer.
In the first dilution step, 10 μl of a concentrated stock-solution of the active compound, solubilized in DMSO (5 mM), was added to 100 μl phosphate citrate buffer pH 7.4 and mixed. In the second dilution step, an aliquot (20 μl) of the first dilution step was further dispensed in 100 μl phosphate citrate buffer pH 7.4 and mixed. Finally, in the third dilution step, a sample (20 μl) of the second dilution step was further diluted in 100 μl phosphate citrate buffer pH 7.4 and mixed. All dilutions were performed in 96-well plates. Immediately after the last dilution step the turbidity of the three consecutive dilution steps were measured with a nephelometer. Dilution was done in triplicate for each compound to exclude occasional errors. Based on the turbidity measurements a ranking is performed into 3 classes. Compounds with high solubility obtained a score of 3 and for this compounds the first dilution is clear. Compounds with medium solubility obtained a score of 2. For these compounds the first dilution is unclear and the second dilution is clear. […] The solubility of 9 compounds was measured.

[3] = biological target: histone deacetylase (HeLa nuclear extracts); test: In vitro assay for inhibition of histone deacetylase; format: biochemical; settings: HeLa nuclear extracts 60 μg/ml, [3H]acetylated histone H4 peptide substrate, 30 min
Method: The in vitro assay for inhibition of histone deacetylase (see example C.1) measures the inhibition of HDAC enzymatic activity obtained with the compounds of formula (I).
HeLa nuclear extracts (supplier: Biomol) were incubated at 60 μg/ml with 2×10^−8 M of radiolabeled peptide substrate. As a substrate for measuring HDAC activity a synthetic peptide, i.e. the amino acids 14-21 of histone H4, was used. The substrate is biotinylated at the NH2-terminal part with a 6-aminohexanoic acid spacer, and is protected at the COOH-terminal part by an amide group and specifically [^3H]acetylated at lysine 16. The substrate, biotin-(6-aminohexanoic)Gly-Ala-([^3H]-acetyl-Lys-Arg-His-Arg-Lys-Val-NH2), was added in a buffer containing 25 mM Hepes, 1 M sucrose, 0.1 mg/ml BSA and 0.01% Triton X-100 at pH 7.4. After 30 min the deacetylation reaction was terminated by the addition of HCl and acetic acid. (final concentration […] respectively). After stopping the reaction, the free ^3H-acetate was extracted with ethylacetate. After mixing and centrifugation, the radioactivity in an aliquot of the upper (organic) phase was counted in β-counter.
For each experiment, controls (containing HeLa nuclear extract and DMSO without compound), a blank incubation (containing DMSO but no HeLa nuclear extract or compound) and samples (containing compound dissolved in DMSO and HeLa nuclear extract) were run in parallel. In first instance, compounds were tested at a concentration of 10^−5M. […] In each test the blank value was substracted from both the control and the sample values. The control sample represented 100% of substrate deactylation. For each sample the radioactivity was expressed as a percentage of the mean value of the controls. […] Herein the effects of test compounds are expressed as pIC50 (the negative log value of the IC50-value).

[4] = not given; remark: listed apart in the source

IC50 [1] [nM] | solubility [2] [µM] | Enzyme activity pIC50 [3] | % metabolism (human, 15 min, 5 μM) [%] | melting point [4] [°C] | SMILES | % metabolism (15 min incubation with active microsomes (1 mg/ml), compound 5 μM) [%]
1240 | < 76 | 7.413 | – | – | O=C(NO)c1ccc(N2CCC(NS(=O)(=O)c3ccc(-c4ccccc4)cc3)CC2)nc1 [compound 15] | –
3040 | > 455 | 7.355 | – | 224 | O=C(NO)c1cnc(N2CC[C@H](CNS(=O)(=O)c3ccc4ccccc4c3)[C@H](O)C2)nc1 [Co. No. 8] | –
9620 | > 455 | 7.533 | – | 203 | O=C(NO)c1cnc(N2CC[C@H](NS(=O)(=O)c3ccc4ccccc4c3)[C@H](CO)C2)nc1 [Co. No. 7] | –
369 | < 76 | 8.123 | – | – | O=C(NO)c1cnc(N2CCC(CNS(=O)(=O)c3ccc4ccccc4c3)CC2)nc1 [Co. No. 5] | –
> 10000 | 76 to 455 (≈ 34.8 to 208 µg/mL) | 7.579 | – | 228 | O=C(NO)c1cnc(N2CCC(O)(CNS(=O)(=O)c3ccc4ccccc4c3)CC2)nc1 [Co. No. 9] | –

The remaining lines, values behind:

SMILES | IC50 [1] [nM] | solubility [2] [µM] | Enzyme activity pIC50 [3] | % metabolism (human, 15 min, 5 μM) [%] | melting point [4] [°C] | % metabolism (15 min incubation with active microsomes (1 mg/ml), compound 5 μM) [%]
COc1cc(N)c(Cl)cc1C(=O)NC1CCN(CCCOc2ccc(F)cc2)CC1OC (stereo not shown) [Cisapride] | – | – | – | 45 | – | –
O=C(NO)c1ccc(N2CCC(CNS(=O)(=O)c3ccc4ccccc4c3)CC2)nc1 [Co. No. 4] | 1360 | < 76 | 7.574 | – | 173 | –
O=C(NO)c1cnc(N2CCC(NS(=O)(=O)c3ccc4ccccc4c3)CC2)nc1 [Co. No. 2] | 27.1 | > 455 | 6.104 | – | 200 | –
CCCO [propanol] | – | – | – | – | – | 25
